{"source": "patent US10161932B2", "about": "“Azetidine-substituted fluorescent compounds” (HOWARD HUGHES MEDICAL INSTITUTE, priority 2014, dated 2018)", "key": {"HaloTag": {"test_system": "HaloTag", "assay": "Labeling kinetics and brightness of HaloTag ligand conjugates in vitro", "format": "biochemical", "conditions": "compared with TMR and Cy3 HaloTag ligands", "from_the_text": "(§1) The labeling kinetics of TMR and JF549 HaloTag ligands were compared with a novel Cy3 HaloTag ligand while measuring the brightness and photon yield of the resulting conjugates."}, "[1]": {"test_system": "HaloTag-histone 2B (H2B) fusion", "assay": "Live-cell confocal labeling of HaloTag-H2B", "format": "cell-based", "conditions": "live cells expressing HaloTag-H2B", "protocol": "as §1\n(§2) HeLa cells (ATCC) and U2OS cells (ATCC) were cultured in Dulbecco's modified eagle medium (DMEM; Life Technologies) supplemented with 10% v/v fetal bovine serum (FBS; Life Technologies), 1 mM GlutaMax (Life Technologies), and 1 mM sodium pyruvate (Sigma) and maintained at 37° C. in a humidified 5% v/v CO2 environment. These cell lines undergo regular mycoplasma testing by the Janelia Cell Culture Facility. Cells were transfected with HaloTag-H2B, HaloTag-tubulin, SnapTag-TetR, or SnapTag-H2B using an Amaxa Nucleofector (Lonza). […]\n(§3) Three separate systems were used to acquire microscopic images. […] Other live-cell single super-resolution imaging experiments were recorded on a custom-built three-camera RAMM frame (ASI) microscope using an 1.4 NA PLAPON 60×OSC objective (Olympus), and a 300 mm focal length tube lens (LAO-300.0, Melles Griot), resulting in 100× overall magnification. […] Fluorescence was detected with a back-illuminated EMCCD camera (Andor Technology, Ixon Ultra DU-897U-CSO-EXF, 17 MHz EM amplifier), which was controlled through Micro-Manager (1.4.17)."}, "HaloTag-H2B": {"test_system": "HaloTag-H2B", "assay": "No wash wide-field imaging of live HeLa cells expressing HaloTag-H2B", "format": "cell-based", "conditions": "ligand 100 nM", "protocol": "Next, “no wash” imaging experiments were performed using cells expressing the HaloTag-H2B fusion.\nas §2, with “(Lonza). Before the imaging experiments, transfected cells were transferred onto a No. 1 coverslip (Warner Instruments) that was cleaned by Piranha solution (3:1 v/v mixture of concentrated H2SO4 and 30% v/v hydrogen peroxide).” for “(Lonza).”\nas §3"}, "HaloTag protein": {"test_system": "HaloTag protein", "conditions": "ligand 5 μM, 10 mM HEPES pH 7.3 with 0.1 mg·mL^−1 CHAPS", "method": "To measure fluorescence of HaloTag ligands upon reaction with HaloTag protein, absorbance measurements were performed in 1 mL quartz cuvettes. HaloTag protein was used as a 100 μM solution in 75 mM NaCl, 50 mM TRIS. HCl, pH 7.4 with 50% v/v glycerol (TBS-glycerol). HaloTag ligands of JF646 and SiTMR (5 μM) were dissolved in 10 mM HEPES, pH 7.3 containing 0.1 mg·mL^−1 CHAPS. An aliquot of HaloTag protein (1.5 equiv) or an equivalent volume of TBS-glycerol blank was added and the resulting mixture was incubated until consistent absorbance signal was observed (˜30 min). […] Absorbance scans are averages (n=2)."}, "SnapTag-H2B": {"test_system": "SnapTag-H2B", "assay": "Nuclear labeling of live HeLa cells expressing SnapTag-H2B", "format": "cell-based", "from_the_text": "In this Example, an azetidinyl-coumarin label was used for cellular imaging. The performance of a commercial SnapTag ligand (i.e., Snap Cell 430) was compared to a novel azetidinyl derivative (Example 52), which was synthesized from a 7-azetidinyl-coumarin-3-carboxylic acid. Under identical transient transfection, labeling, and imaging conditions, H2B-SnapTag-expressing cells were stained with the red fluorescent nuclear stain DRAQ5 and either Snap Cell 430 or the azetidinyl ligand. Using the DRAQ5 staining as a spatial reference (FIGS. 26 and 27) the intensity of individual nuclei labeled by either SnapTag ligand was measured.\nHeLa cells (ATCC) and U2OS cells (ATCC) were cultured in Dulbecco's modified eagle medium (DMEM; Life Technologies) supplemented with 10% v/v fetal bovine serum (FBS; Life Technologies), 1 mM GlutaMax (Life Technologies), and 1 mM sodium pyruvate (Sigma) and maintained at 37° C. in a humidified 5% v/v CO2 environment. These cell lines undergo regular mycoplasma testing by the Janelia Cell Culture Facility. […]\nThree separate systems were used to acquire microscopic images. […] Other live-cell single super-resolution imaging experiments were recorded on a custom-built three-camera RAMM frame (ASI) microscope using an 1.4 NA PLAPON 60×OSC objective (Olympus), and a 300 mm focal length tube lens (LAO-300.0, Melles Griot), resulting in 100× overall magnification. […]"}}, "data": [{"compound": "O=C(NCCOCCOCCCCCCCl)c1ccc(C(=O)[O-])c(-c2c3ccc(=[N+]4CCC4)cc-3oc3cc(N4CCC4)ccc23)c1", "note": "[Example 21, 4-((2-(2-((6-Chlorohexyl)oxy)ethoxy)ethyl)carbamoyl)-2-(3,6-di(azetidin-1-yl)xanthylium-9-yl)benzoate]", "values": [{"measurement": "labeling kinetics", "setting": "HaloTag", "value": "comparable labeling kinetics to the TMR ligand"}, {"measurement": "live-cell labeling / cell permeability", "setting": "[1]", "value": "efficiently crossed the membrane of live cells and selectively labeled the HaloTag protein"}]}, {"compound": "C[Si]1(C)C2=CC(=[N+]3CCC3)C=CC2=C(c2cc(C(=O)NCCOCCOCCCCCCCl)ccc2C(=O)[O-])c2ccc(N3CCC3)cc21", "note": "[Example 35, 4-((2-(2-((6-Chlorohexyl)oxy)ethoxy)ethyl)carbamoyl)-2-(3,7-di(azetidin-1-yl)-5,5-dimethyldibenzo[b,e]silin-10-ylium-10(5H)-yl)benzoate]", "values": [{"measurement": "nonspecific staining / background", "setting": "HaloTag-H2B", "value": "lower nonspecific staining"}, {"measurement": "increase in absorbance upon reaction with excess HaloTag protein", "setting": "HaloTag protein", "value": 21, "unit": "fold"}]}, {"compound": "Nc1nc(OCc2ccc(CNC(=O)c3cc4ccc(N5CCC5)cc4oc3=O)cc2)c2nc[nH]c2n1", "note": "[Example 52, N-(4-(((2-Amino-9H-purin-6-yl)oxy)methyl)benzyl)-7-(azetidin-1-yl)-2-oxo-2H-chromene-3-carboxamide]", "values": [{"measurement": "nuclear fluorescence intensity", "setting": "SnapTag-H2B; DRAQ5 reference", "value": "brighter nuclear labeling"}, {"measurement": "median nuclear intensity relative to cells labeled with the commercial compound", "setting": "SnapTag-H2B; n=50", "value": "five-fold higher"}]}]}
